Source: patent publication US9839215B2, “Methods for increasing oil palm yield” (Valent BioSciences Corporation, priority 2015, dated 2017)

What was measured:
oil palm = assay: Field study of cumulative loose fruit (CLF) and cumulative loose mass (CLM) after one-time bunch-directed spray; assay type: in vivo, oil palm (Compact×Ghana plants); settings: one spray 100 mL/bunch; for Cumulative Loose Mass / % Difference with UTC (Cumulative Loose Fruit) / % Difference with UTC (Cumulative Loose Mass): 14 days; for % Difference with UTC (Cumulative Loose Fruit) / % Difference with UTC (Cumulative Loose Mass): positive = reduction; for Cumulative Loose Fruit: counted for 14 days
Excerpt: Plant Material: A field study was executed in a plantation in Costa Rica to compare the effects of one-time bunch-directed applications of: (1) water sprayed untreated control (UTC); (2) AVG-HCl at 500 ppm (59.5 g) active ingredient (a.i.); (3) AVG-HCl at 125 ppm (14.9 g) a.i.; (4) 200 ppm (0.2 g) a.i. of NAA; (5) AVG-HCl at 500 ppm (59.5 g) a.i. and 200 ppm (0.2 g) a.i. of NAA; and (6) AVG-HCl at 125 ppm (14.9 g) a.i. and 200 ppm (0.2 g) a.i. of NAA. In this study, AVG was provided in a formulation as AVG-HCl. NAA was provided as the sodium salt at concentrations of 20% and 3.5%. For each treatment, 24 palms per treatment were randomly selected covering about 15 hectares. The palms were Compact×Ghana plants and 2.5 to 3 years old. Treatment Application: A manual DEA-2000 sprayer was used to spray all treatments (100 mL/bunch) to bunches with 1 to 3 loose fruits. The time required to spray each bunch was about 11 to 20 seconds depending on the sprayer. Sprays were conducted only once per bunch. Twelve bunches were sprayed on Oct. 28, 2014 and the other 12 on Nov. 4, 2014. Cumulative loose fruit (CLF) and cumulative loose mass (CLM) counts were determined at daily basis with exception of Sundays for 14 days in order to objectively quantify fruit abscission. An electronic balance was used to weight out all fruit. All loose fruit on the bunch, branches and on the ground was counted and weighed.

oil palms = assay: Oil yield of oil palms after application before harvest of the fruit; assay type: in vivo, oil palm; settings: applied before harvest of the fruit
oil palm fruit = settings: preharvest application to attached bunches of oil palm fruit; cited from earlier work

## NCCO/C=C/[C@H](N)C(=O)O (stereo in doubt) [AVG, [S]-trans-2-amino-4-(2-aminoethoxy)-3-butenoic acid]
Oil palm; AVG-HCl 125 ppm (14.9 g) a.i.
  Cumulative Loose Mass: 2028 g
  % Difference with UTC (Cumulative Loose Fruit): 3.9%
  % Difference with UTC (Cumulative Loose Mass): −5.4%
  Cumulative Loose Fruit: 160.7
Oil palm; AVG-HCl 500 ppm (59.5 g) a.i.
  Cumulative Loose Mass: 1154 g
  % Difference with UTC (Cumulative Loose Fruit): 48.5%
  % Difference with UTC (Cumulative Loose Mass): 40%
  Cumulative Loose Fruit: 86.1

## O=C(O)Cc1cccc2ccccc12 [NAA, 1-naphthaleneacetic acid]
Oil palm; NAA 200 ppm (0.2 g) a.i.
  Cumulative Loose Mass: 1501 g
  % Difference with UTC (Cumulative Loose Fruit): 31.3%
  % Difference with UTC (Cumulative Loose Mass): 22%
  Cumulative Loose Fruit: 114.8
Oil palms
  oil yield of oil palms: increases the oil yield

## O=P(O)(O)CCCl [ethephon, 2-chloroethyl phosphonic acid]
Oil palm fruit
  increase of oil content: 7%

## C=C1C[C@]23C[C@@]1(O)CC[C@H]2[C@@]12C=C[C@H](O)[C@@](C)(C(=O)O1)[C@H]2[C@@H]3C(=O)O [gibberellic acid]
Oil palms
  oil yield of oil palms: inconsistent and unsatisfactory oil yields
